Assay results as given in the Deep4Chem optical property database.
Blank lines part the entries; values can stand above or below the compound they belong to.

Experiment: solvent given as SMILES

absorption maximum (in CN(C)C=O): 334 nm
SMILES: O=c1[nH]nc(-c2ccc(/C=C/c3ccc(-c4n[nH]c(=O)o4)cc3)cc2)o1

absorption maximum (in CCO): 362 nm
SMILES: C#Cc1ccc2ccc3oc(=O)cc(C)c3c2c1

absorption maximum (in ClC(Cl)Cl): 342 nm
SMILES: COc1c(C)c2c(c(C)c1Cl)Oc1c(C=O)c(O)c(Cl)c(C)c1C(=O)O2

absorption maximum (in C1CCOC1): 313 nm
absorption maximum (in CC(C)O): 311 nm
absorption maximum (in CO): 309 nm
absorption maximum (in CS(C)=O): 315 nm
absorption maximum (in ClC(Cl)Cl): 314 nm
absorption maximum (in ClCCl): 313 nm
SMILES: COc1ccccc1-c1c(-c2ccccc2O)nc(-c2ccc(C(F)(F)F)cc2)n1-c1ccc(C)cc1

absorption maximum (in ClCCl): 321 nm
SMILES: CCOC(=O)c1c(-c2c(Cl)c3ccccc3oc2=O)nn(-c2cccc(Cl)c2)c1C(=O)OCC

absorption maximum (in CO): 604 nm
absorption maximum (in ClC(Cl)Cl): 609 nm
SMILES: CCCCCCCCCCN1C(=O)c2cc(NCCCOCCO)c3c4c(cc(NCCCOCCO)c(c24)C1=O)C(=O)N(CCCCCCCCCC)C3=O

absorption maximum (in CC#N): 411 nm
SMILES: CN(C)c1ccc(-c2nc3nc4ccccc4nc3n2-c2ccccc2)cc1

absorption maximum (in ClCCl): 372 nm
SMILES: CCCCN1C(=O)c2cccc3c(C#CC#Cc4ccc5c6c(cccc46)C(=O)N(CCCC)C5=O)ccc(c23)C1=O

absorption maximum (in ClCCl): 364 nm
SMILES: C(#Cc1cc(C#Cc2ccccc2)c(C#Cc2ccccc2)c(C#Cc2ccccc2)c1C#Cc1ccccc1)c1ccccc1

absorption maximum (in O): 260 nm
SMILES: COc1cc(C(=O)O)cc(OC)c1O

absorption maximum (in CC#N): 493 nm
absorption maximum (in CCCCCC): 499 nm
absorption maximum (in CCOC(C)=O): 495 nm
absorption maximum (in CO): 495 nm
absorption maximum (in ClCCl): 499 nm
SMILES: COc1ccc2n1[B-](F)(F)[N+]1=CC=CC1=C2c1ccccc1

absorption maximum (in CC#N): 412 nm
absorption maximum (in ClCCl): 418 nm
SMILES: COc1ccc(-c2cc3c(s2)c(C(C)=O)cc(=O)n3C)cc1

absorption maximum (in ClCCl): 340 nm
SMILES: CC(C)(C)c1ccc2c(c1)c1cc(C(C)(C)C)ccc1n2-c1ccc(-c2cccs2)s1

absorption maximum (in CCO): 465 nm
SMILES: CCCCOc1c(C=C2C=Cc3ccccc3N2C)c(=O)c1=O

absorption maximum (in ClC(Cl)Cl): 382 nm
SMILES: CCC[Si](CCC)(CCC)c1cc2ccc3cccc4ccc(c1C(=O)NC(C)(C)C)c2c34

absorption maximum (in O): 349 nm
SMILES: Cc1ccc(N(CC(=O)[O-])CC(=O)[O-])cc1OCCOc1cc(-c2cc3ccc(C(=O)[O-])cc3[nH]2)ccc1N(CC(=O)[O-])CC(=O)[O-]

absorption maximum (in CC#N): 310 nm
SMILES: CC(C)Oc1ccc(C#Cc2ccc3ccc(=O)oc3c2)cc1

absorption maximum (in ClCCl): 273 nm
SMILES: COC(=O)c1c(-c2cc3ccccc3oc2=O)nn(-c2cccc(Cl)c2)c1C(=O)OC

absorption maximum (in CS(C)=O): 644 nm
SMILES: COc1ccc(-c2c3nc(cc4ccc([nH]4)c(-c4ccc(OC)c(OCCCC(=O)O)c4)c4nc(cc5ccc2[nH]5)CC4)C=C3)cc1OCCCC(=O)O

absorption maximum (in C1CCOC1): 349 nm
absorption maximum (in C1COCCO1): 347 nm
absorption maximum (in CC#N): 349 nm
absorption maximum (in CCCCCCC): 347 nm
absorption maximum (in CCO): 349 nm
absorption maximum (in CO): 349 nm
absorption maximum (in O): 347 nm
SMILES: CC1(C)CC(=O)C2=C(C1)Oc1ccc3cc(O)ccc3c1C2c1ccccn1 (centres undefined)

absorption maximum (in CC#N): 438 nm
SMILES: C(=C\N1CCCC1)/c1nc2ccccc2nc1-c1ccccc1

absorption maximum (in ClCCl): 329 nm
SMILES: Cc1cc2c3ccccc3n(C)c2c2c1c1ccccc1n2C

absorption maximum (in O): 646 nm
SMILES: Cc1ccc(C2=C3C=CC(=[N+](C)C)C=C3[Si](C)(C)c3cc(N(C)C)ccc32)c(C)c1

absorption maximum (in C1CCCCC1): 335 nm
absorption maximum (in C1COCCO1): 335 nm
absorption maximum (in CCCCCC): 333 nm
absorption maximum (in CCOC(C)=O): 335 nm
absorption maximum (in CN(C)C=O): 338 nm
absorption maximum (in ClCCl): 336 nm
absorption maximum (in O): 338 nm
SMILES: Cc1ccc(C(=O)/C=C2\C(=O)Nc3ccccc32)cc1C

absorption maximum (in O): 347.28 nm
SMILES: CNc1ccc(/C=C/C(=O)OC)cc1

The next lines start with the compound.

SMILES: COc1ccc(-c2cc3c(ccc4sc5ccc6sc(-c7ccc(C(C)=O)cc7)cc6c5c43)s2)cc1
absorption maximum (in ClCCl): 380 nm

SMILES: C(=C\c1cnc2ccccc2n1)/c1ccc(N(c2ccccc2)c2ccccc2)cc1
absorption maximum (in C1CCOC1): 423 nm
absorption maximum (in CC#N): 425 nm
absorption maximum (in CS(C)=O): 436 nm
absorption maximum (in ClCCl): 427 nm

SMILES: O=C1c2ccc(N(c3ccccc3)c3ccccc3)cc2C(=O)c2ccc(N(c3ccccc3)c3ccccc3)cc21
absorption maximum (in Cc1ccccc1): 449 nm

SMILES: c1ccc(-c2cc(-c3ccccc3)cc(-c3ccc4c(c3)C3(c5cc(-c6cc(-c7ccccc7)cc(-c7ccccc7)c6)ccc5-4)c4ccccc4-c4c3c3c5ccccc5ccc3c3ccccc43)c2)cc1
absorption maximum (in C1CCOC1): 379 nm

SMILES: CCCCCCCCCCCCCCCCn1c(-c2cc(-c3nc4ccc(C)cc4n3CCCCCCCCCCCCCCCC)cc(-c3nc4ccc(C)cc4n3CCCCCCCCCCCCCCCC)c2)nc2ccc(C)cc21
absorption maximum (in ClCCl): 306 nm

SMILES: F[B-]1(F)Oc2ccccc2-c2nc(-c3ccccc3)c3cc(Cl)ccc3[n+]21
absorption maximum (in Cc1ccccc1): 395 nm

SMILES: CCCCCCCCc1ccc(-n2c3c4ccccc4nnc3c3c2c2nnc4ccccc4c2n3-c2ccc(CCCCCCCC)cc2)cc1
absorption maximum (in Cc1ccccc1): 316 nm

SMILES: C=CB1C=Cc2ccc3ccccc3c2N1
absorption maximum (in C1CCCCC1): 355 nm

SMILES: CCN(CC)c1cccc2c1ccc1c(=O)oc(-c3ccc(C(F)(F)F)cc3)cc12
absorption maximum (in CC(C)=O): 390 nm
absorption maximum (in CCCCCC): 388 nm
absorption maximum (in CCCCCCCCO): 393 nm
absorption maximum (in CCCCO): 392 nm
absorption maximum (in CCCO): 391 nm
absorption maximum (in CCO): 392 nm
absorption maximum (in CCOC(C)=O): 389 nm
absorption maximum (in CN(C)C=O): 394 nm
absorption maximum (in CO): 391 nm

SMILES: N#CC=C(c1ccc(N2c3ccccc3Oc3ccccc32)cc1)c1ccc(N2c3ccccc3Oc3ccccc32)cc1
absorption maximum (in Cc1ccccc1): 405 nm

SMILES: CCOC(=O)c1cc(C(=O)OCC)c2ccc(O)cc2n1
absorption maximum (in CCO): 373 nm

SMILES: c1ccc2c(c1)c1ccccc1n2-c1ccc(-c2ccc(-n3c4ccccc4c4ccccc43)nc2-n2c3ccccc3c3ccccc32)nn1
absorption maximum (in CC#N): 335 nm
absorption maximum (in Cc1ccccc1): 346 nm
absorption maximum (in ClCCl): 337 nm

SMILES: CCN1C(=O)C(C2C(=O)c3c4ccccc4cc4cc5ccccc5c2c34)C(=O)N(CC)C1=S (centres undefined)
absorption maximum (in ClCCl): 532.11 nm

SMILES: CCN(CC)c1ccc2c(c1)oc(=O)c1c(=O)oc3cc(C#Cc4ccc(C#N)cc4)ccc3c12
absorption maximum (in CS(C)=O): 481 nm
absorption maximum (in ClCCl): 476 nm

SMILES: CC1=C(c2ccc(N(c3ccccc3)c3ccccc3)cc2)C(C)=[N+]2C1=C(c1c(-c3ccccn3)nc3ccccn13)c1c(C)c(-c3ccc(N(c4ccccc4)c4ccccc4)cc3)c(C)n1[B-]2(F)F
absorption maximum (in ClCCl): 568 nm

SMILES: Cc1c(C)c(-c2ccc(-c3cccnc3)cc2)c(C)c(C)c1B(c1c(C)c(C)c(-c2ccc(-c3cccnc3)cc2)c(C)c1C)c1c(C)c(C)c(-c2ccc(-c3cccnc3)cc2)c(C)c1C
absorption maximum (in ClCCl): 331 nm

SMILES: Cc1cc(C)c(B(c2ccc(-c3cc4ccc5cccc6ccc(c3)c4c56)cc2)c2c(C)cc(C)cc2C)c(C)c1
absorption maximum (in Cc1ccccc1): 378 nm

SMILES: COC(=O)/C(C#N)=c1\s/c(=c2/s/c(=C(/C#N)C(=O)OC)c3cc(-c4ccc(F)cc4)sc23)c2sc(-c3ccc(F)cc3)cc12
absorption maximum (in Cc1ccccc1): 602 nm

SMILES: COCCC1=Cc2nc1ccc1[nH]c(cc1CCOC)c1nc(c(OC(C)=O)cc3[nH]c2cc3CCOC)C(CCOC)=C1
absorption maximum (in Cc1ccccc1): 647 nm

SMILES: CCN1c2ccc(/C=N/Nc3ccccn3)cc2Sc2cc(-c3ccccc3)ccc21
absorption maximum (in C1CCOC1): 379 nm
absorption maximum (in CS(C)=O): 387 nm
absorption maximum (in Cc1ccccc1): 382 nm
absorption maximum (in ClCCl): 384 nm

SMILES: CC[n+]1c(C=C2C(=O)C(C=C3N(C)c4ccccc4C3(C)C)=C2[O-])sc2ccccc21
absorption maximum (in CO): 635 nm
absorption maximum (in ClC(Cl)Cl): 649 nm
absorption maximum (in ClCCl): 650 nm

SMILES: CC(C)(C)c1ccc2c(c1)c1cc(C(C)(C)C)ccc1n2-c1ccc(C#Cc2ccccc2)cc1
absorption maximum (in CC#N): 329 nm
absorption maximum (in CCCCC): 329 nm
absorption maximum (in CO): 329 nm
absorption maximum (in Cc1ccccc1): 335 nm
absorption maximum (in ClC(Cl)Cl): 329 nm
absorption maximum (in ClCCl): 334 nm

SMILES: CN(C)c1ccc2nc(/C=C/c3cc4c5c(c3)CCCN5CCC4)c(=O)oc2c1
absorption maximum (in C1CCCCC1): 487 nm
absorption maximum (in C1COCCO1): 495.5 nm
absorption maximum (in CC#N): 507.5 nm
absorption maximum (in CC(C)=O): 507 nm
absorption maximum (in CCCCCCC): 483 nm
absorption maximum (in CCO): 513 nm
absorption maximum (in CCOC(C)=O): 501 nm
absorption maximum (in CN(C)C=O): 516 nm
absorption maximum (in CS(C)=O): 522.5 nm
absorption maximum (in Cc1ccccc1): 505.5 nm
absorption maximum (in ClC(Cl)Cl): 517 nm
absorption maximum (in ClCCl): 514.5 nm

SMILES: CCOC(=O)c1sc2nc(C)c(C)c(C#N)c2c1N
absorption maximum (in c1ccccc1): 406 nm

SMILES: O=C(O)c1ccc(-c2nc(-c3ccccc3)c3c4ccccc4ccn23)cc1
absorption maximum (in CC#N): 353 nm

SMILES: Cc1c(C)n2c(COC(=O)CNC(=O)OC(C)(C)C)c(C)c(=O)n2c1=O
absorption maximum (in CCO): 374 nm

SMILES: CC1=c2c3c4cccc5cccc(c=3c(C)[n+]2[B-](F)(F)n2c(C)c3c(c21)-c1cccc2cccc-3c12)c54
absorption maximum (in ClC(Cl)Cl): 657 nm

SMILES: Cc1cccc2c3ccccc3n(-c3ccc(-c4c(-c5ccccc5)c(C#N)c(C#N)c(-c5ccccc5)c4-c4ccc(-n5c6ccccc6c6cccc(C)c65)cc4)cc3)c12
absorption maximum (in Cc1ccccc1): 339 nm

SMILES: N#C/C(=C\c1ccc(C=C(c2ccccc2)c2ccccc2)cc1)c1ccccc1
absorption maximum (in C1CCOC1): 366 nm

SMILES: CCCCC[n+]1ccc(/C=C/c2ccc(N(C)C)c3ccccc23)c2ccccc21
absorption maximum (in C1CCOC1): 502 nm
absorption maximum (in C1COCCO1): 495 nm
absorption maximum (in CC#N): 496 nm
absorption maximum (in CC(C)=O): 503 nm
absorption maximum (in CCCCO): 522 nm
absorption maximum (in CCO): 508 nm
absorption maximum (in CN(C)C=O): 501 nm
absorption maximum (in CO): 503 nm
absorption maximum (in CS(C)=O): 506 nm
absorption maximum (in ClC(Cl)Cl): 522 nm
absorption maximum (in O): 452 nm
absorption maximum (in c1ccccc1): 494 nm
absorption maximum (in c1ccncc1): 526 nm

SMILES: FC(F)(F)c1ccc2oc3nc4oc5ccc(N(c6ccccc6)c6ccccc6)cc5c4cc3c2c1
absorption maximum (in ClC(Cl)Cl): 345 nm

SMILES: F[B-]1(F)OC(c2ccc(C(F)(F)F)cc2)=Cc2ccc3ccccc3[n+]21
absorption maximum (in ClC(Cl)Cl): 424 nm

SMILES: c1ccc(-c2nc3ccccc3nc2-c2ccc(-n3c4ccccc4c4ccccc43)cc2)cc1
absorption maximum (in Cc1ccccc1): 345 nm

SMILES: c1ccc(-c2nc(-c3ccccc3)nc(-c3ccc(-n4c5ccccc5c5c6c(ccc54)C4(c5ccccc5-c5ccccc54)c4ccccc4-6)cc3)n2)cc1
absorption maximum (in Cc1ccccc1): 374 nm
